Our source for the cytotoxicity values is ChEMBL document CHEMBL3507680, “University of Dundee, Gates Library screen for HepG2 cell viability”.

Each structure is given as a SMILES string.

The series can be described thus: Human HepG2 cell viability assay in 384 well format. Format: toxicity, cell-based. Also on record: dose 125 nL, time 70.5 hour; concentration not given beside the values. The conditions noted are these: HepG2 cells, read-out: Inhibition.
`Cc1ncoc1C(=O)N1CCCC(C(=O)c2cccc(OC(C)C)c2)C1` (stereo not drawn): the cytotoxicity at 70.5 h is -8.43%.
In the case of `CCc1cc(N2C[C@H](C3CC3)[C@@H](N)C2)nc(N2CCCC2)n1`, the cytotoxicity at 70.5 h is 18.8%.
Regarding `O=C(NCCN1CCCCC1CO)c1cc(-c2ccccc2)on1` (stereo not drawn), the cytotoxicity at 70.5 h was -4.82%.
As to `CC(C)c1nc(CN(C)C(=O)CCS(=O)(=O)c2ccccc2)no1`, the cytotoxicity at 70.5 h was -8.68%.
Regarding `COc1ccc(C(=O)N2C[C@@H](O)[C@H](NCCc3ncccc3C)C2)cc1`, the cytotoxicity at 70.5 h was -10.6%.
As to `N[C@H]1CN(S(=O)(=O)Cc2ccccc2)C[C@@H]1C1CC1`, the cytotoxicity at 70.5 h is -6.71%.
The result for `CSCC[C@@H](CO)Nc1nc(-c2ccccn2)nc2c1c(C)nn2C` reads -0.626%.
For `Cc1ccc(CN(C)C(=O)c2cc(Cn3ccnc3C(C)C)[nH]n2)o1`, the cytotoxicity at 70.5 h came out at 3.51%.
Then `COCCN(CC1CC1)c1nc(CCN)nc2ccccc12`, with -4.8%.
Regarding `Cc1cnc(CNc2ncc(C)c(-c3cnn(C)c3)n2)cn1`, the cytotoxicity at 70.5 h is -14.1%.
Turning to `COc1cc(C)cc(C(C(=O)O)N(C)CCN2CCCC2)c1OC` (stereo not drawn), the cytotoxicity at 70.5 h is -2.88%.
For `CNc1ccnc(N2CC[C@@](O)(C3CCOCC3)[C@H](C)C2)n1`, the cytotoxicity at 70.5 h is -7.76%.
Consider `Cc1cc(C(F)(F)F)nc(CNC(=O)C2CCCCCN2C)n1` (stereo not drawn), for which the cytotoxicity at 70.5 h worked out at 2.11%.
Then `COc1cccc2c1OCCCN(Cc1ncccc1C(=O)O)C2`, with -3.58%.
In the case of `O=C1N(CC2CCCCC2)CCCC1(O)CN1CCc2[nH]ncc2C1` (stereo not drawn), the cytotoxicity at 70.5 h is -7.48%.
Regarding `c1ccc(CN(Cc2ncc[nH]2)Cc2nccs2)cc1`, the cytotoxicity at 70.5 h was -14.7%.
With `Cc1cc(-c2ccc(C(C)N3CCCCC3)cc2)cnc1N` (stereo not drawn), the cytotoxicity at 70.5 h is -1.07%.
For `CCc1ncc2c(n1)CN(C(=O)CC(C)NC(C)=O)C2` (stereo not drawn), the cytotoxicity at 70.5 h is -5.94%.
Then `CCn1c(CN(C)C)nnc1C1CCN(Cc2ccc(Cl)cc2F)CC1`, with -0.622%; and `COc1cccc(Cn2ncnc2CCSC)c1`, with -12.2%; and `CN(Cc1ccccc1)CC1(O)CCCN(CCC2CCCCC2)C1=O` (stereo not drawn), with 29.6%.
Then `CN1CCCN(C[C@@H]2CN(C(=O)N3CCOCC3)C[C@@H]2CO)CC1`, with -3.11%; and `COCC(=O)N1CC[C@]2(O)CCN(Cc3cccnc3OC)C[C@@H]2C1`, with -7.29%; and `Cc1noc(-c2ccc(N(C)Cc3ccncn3)nc2)n1`, with -5.88%.
As for `CNS(=O)(=O)c1ccc(CN2CCCN(Cc3ccncc3)CC2)cc1`, the cytotoxicity at 70.5 h turned out to be 16.9%.
`CN1CCN(C[C@@H]2CN(C3Cc4ccccc4C3)C[C@@H]2CO)CC1`: the cytotoxicity at 70.5 h was 22.1%.
Then `Cc1ncsc1CN(Cc1ccccc1)Cc1ncc[nH]1`, with 17.5%; and `CN(C)CCn1ccnc1C1CCN(C(=O)CCC(F)(F)F)CC1`, with -7.92%.
With `O=C(O)[C@H]1C[C@H](C(=O)NC2CC2)CN(Cc2ccc(-c3cc[nH]n3)s2)C1`, the cytotoxicity at 70.5 h stood at 11.9%.
For `CCCc1nc(N2CCCN(c3ncccn3)CC2)c2cnn(C)c2n1`, the cytotoxicity at 70.5 h was found to be 4.78%.
For the molecule `Cc1cc2c(=O)n(CCOCCO)cnc2s1`, the cytotoxicity at 70.5 h is -5.77%.
The result for `CCN(Cc1nc(COC)no1)C(=O)CCNC(=O)c1ccccc1F` reads 22.4%; that for `Cc1nc(-c2cccc(N3CCC(NC4CCSC4)CC3)c2)cs1` (stereo not drawn), -1.58%.
`OC1(CNCCc2nc(Cc3ccccc3)no2)CNCCOC1` (stereo not drawn): the cytotoxicity at 70.5 h is 0.264%.
For `Cc1ccc(N2CCC(C(=O)O)(n3ccc(C(C)C)n3)CC2)nn1`, the cytotoxicity at 70.5 h is -1.26%.
Turning to `OCCN1CCN(Cc2cnc3c(-c4ccccc4)cnn3c2)CC1`, the cytotoxicity at 70.5 h amounted to 6.6%.
Then `CC1(C)CN(C(=O)c2cnc(CN3CCCC3)s2)CC[C@]1(C)O`, with -0.621%; and `CC(C)c1nc(CN(C)Cc2ccc(O)c(Cl)c2)cs1`, with -13.5%; and `CCc1ncc(C(=O)N(CCOC)Cc2nccs2)cn1`, with 5.06%.
Consider `CCn1c(N)nc2cc(C(=O)N3CCN(c4nccs4)CC3)cnc21`, for which the cytotoxicity at 70.5 h is -6.84%.
As to `CN(CCN1CCCC1)c1nccc(N2CCN[C@H]3CS(=O)(=O)C[C@H]32)n1`, the cytotoxicity at 70.5 h was found to be 22.4%.
As to `COc1ccc(CN(C)C2CCN(S(C)(=O)=O)CC2)c2cccnc12`, the cytotoxicity at 70.5 h was -1.77%.
In the case of `Cc1cnn(CCC(=O)N2CCN(C(=O)C(C)C)[C@@H]3CS(=O)(=O)C[C@@H]32)c1`, the cytotoxicity at 70.5 h was -9.72%.
In the case of `Cn1cnc(S(=O)(=O)N2C[C@@H]3CC[C@H](C2)N(Cc2ccccn2)C3)c1`, the cytotoxicity at 70.5 h is -7.24%.
Then `CCC(CC)C(=O)N1CCC2(CC1)c1ccccc1[C@@H](OC)[C@@H]2O`, with -8.24%; and `CCn1nc(C)cc1C(=O)NCc1nc(C)cc(C)n1`, with -13.2%.
Consider `CCC[C@H]1CN(CCS(C)(=O)=O)C[C@@H]1NC(=O)c1cccnn1`, for which the cytotoxicity at 70.5 h was 7.31%.
Then `CC(C)c1cc(C(=O)N2CCCN(CCCc3ccccc3)CC2)[nH]n1`, with -8.74%; and `Cc1cc(C(=O)N2CCN[C@H](C)C2)c2ccc(F)cc2n1`, with 15.7%.
Take `COc1ccc(CCNC(=O)N2CCN(C)[C@@H]3CS(=O)(=O)C[C@@H]32)cc1`: the cytotoxicity at 70.5 h was -3.24%.
With `CC(C)Oc1cc(N2CC[C@@H](N3CCOCC3)[C@H](O)C2)nc(N)n1`, the cytotoxicity at 70.5 h was -6.54%.
Regarding `Cn1ncc2c(N3CCCN4CCC[C@H]4C3)nc(C(C)(C)C)nc21`, the cytotoxicity at 70.5 h was -7.18%.
Take `CSc1cccc(CN(C)C(=O)Cn2ncc(N3CCCC3)cc2=O)c1`: the cytotoxicity at 70.5 h is -3.66%.
Regarding `CCNC(=O)[C@@H]1C[C@@H](N)CN1Cc1ccc(-c2ccccc2C#N)o1`, the cytotoxicity at 70.5 h was -6.11%.
With `CCOc1ccc2[nH]c(=O)c(CN3CCN(S(N)(=O)=O)CC3)cc2c1`, the cytotoxicity at 70.5 h is -11.9%.
Regarding `CCn1nc(C(C)C)cc1C(=O)NCc1nc2ccc(OC)cc2[nH]1`, the cytotoxicity at 70.5 h is -14.7%.
Turning to `CCN(C)c1nccc(N2CCN[C@H]3CS(=O)(=O)C[C@H]32)n1`, the cytotoxicity at 70.5 h was determined as 10.7%.
On to `O=C(CCn1cc(Cl)cn1)N1CCN(CCOc2ccccc2)CC1`, for which the cytotoxicity at 70.5 h is -4.12%.
Regarding `CCc1csc(CNC(=O)C(CC)n2cccn2)n1` (stereo not drawn), the cytotoxicity at 70.5 h was -2.46%.
As to `CCn1c(N)nc2cc(C(=O)NCCCc3ccccn3)cnc21`, the cytotoxicity at 70.5 h is -15%.
For `O=C(CCc1ccccn1)NC1CCCN(C2Cc3ccccc3C2)C1` (stereo not drawn), the cytotoxicity at 70.5 h was -8.7%.
`CC(C(=O)O)N1CCc2onc(-c3ccc4c(c3)OCO4)c2C1` (stereo not drawn): the cytotoxicity at 70.5 h is -3.84%.
In the case of `C[C@H](c1ccc(F)cc1)n1c(C2CCN(C)CC2)n[nH]c1=O`, the cytotoxicity at 70.5 h worked out at 19.4%.
Then `NCCc1cccc(CN2CCN(c3ccccc3)C(=O)C2)c1`, with -9.38%.
For the molecule `CCn1c(C2CCN(C(=O)c3cc(CC(C)C)on3)CC2)nn(C)c1=O`, the cytotoxicity at 70.5 h worked out at 6.02%.
In the case of `Cc1cc(C(=O)NCc2csc(N(C)C)n2)c2ccc(C)c(C)c2n1`, the cytotoxicity at 70.5 h came out at 0.264%.
Consider `CCCc1nnc2sc(CC3CN(Cc4ccccc4)CCO3)nn12` (stereo not drawn), for which the cytotoxicity at 70.5 h is -8.68%.
On to `COc1ccccc1-c1ccc(C(=O)N2C[C@H]3CC[C@@H]2CN(C)C3)cc1`, for which the cytotoxicity at 70.5 h was -8.1%.
